Activity calls are given as the source filed them.
How the values were obtained:
[1] = biological target: Tyrosine-protein phosphatase non-receptor type 5 (Homo sapiens, UniProt P54829); experiment: STEP phosphatase inhibitors, confirmation, biochemical, fluorescence intensity, uHTS hits (AID 602372); type: functional; details: read-out: IC50_Mean
[2] = biological target: Dual specificity protein phosphatase 3 (Homo sapiens, UniProt P51452); experiment: VHR phosphatase inhibition, dose response, selectivity assay for STEP inhibitor project, biochemical (AID 602374); type: functional; details: read-out: IC50_Mean
[3] = biological target: Tyrosine-protein phosphatase non-receptor type 11 (Homo sapiens, UniProt Q06124); experiment: SHP2 phosphatase inhibition, dose response, selectivity assay for STEP inhibitor project, biochemical (AID 602367); type: functional; details: read-out: IC50_Mean
[4] = Fluorescence-based cell-based high throughput dose response assay for inhibitors of the interaction of nucleotide-binding oligomerization domain containing 2 (NOD2) and the receptor-interacting serine-threonine kinase 2 (RIPK2).; type: functional; details: Homo sapiens
[5] = inhibitors of SNCA 5'UTR-driven reporter translation, confirmation, H4 neuroglioma cells, luminescence (AID 1988); type: functional, cell-based
[6] = inhibitors of firefly luciferase expression or activity, dose response, H4 neuroglioma cells, luminescence (AID 1990); type: functional, cell-based
[7] = biological target: T1, Replicative DNA helicase DnaB (Mycobacterium tuberculosis, UniProt P9WMR3); experiment: DnaB intein splicing inhibitors, dose response, biochemical, cell-free fluorescence (AID 449749); type: functional
T1 sequence (P9WMR3 whole entry): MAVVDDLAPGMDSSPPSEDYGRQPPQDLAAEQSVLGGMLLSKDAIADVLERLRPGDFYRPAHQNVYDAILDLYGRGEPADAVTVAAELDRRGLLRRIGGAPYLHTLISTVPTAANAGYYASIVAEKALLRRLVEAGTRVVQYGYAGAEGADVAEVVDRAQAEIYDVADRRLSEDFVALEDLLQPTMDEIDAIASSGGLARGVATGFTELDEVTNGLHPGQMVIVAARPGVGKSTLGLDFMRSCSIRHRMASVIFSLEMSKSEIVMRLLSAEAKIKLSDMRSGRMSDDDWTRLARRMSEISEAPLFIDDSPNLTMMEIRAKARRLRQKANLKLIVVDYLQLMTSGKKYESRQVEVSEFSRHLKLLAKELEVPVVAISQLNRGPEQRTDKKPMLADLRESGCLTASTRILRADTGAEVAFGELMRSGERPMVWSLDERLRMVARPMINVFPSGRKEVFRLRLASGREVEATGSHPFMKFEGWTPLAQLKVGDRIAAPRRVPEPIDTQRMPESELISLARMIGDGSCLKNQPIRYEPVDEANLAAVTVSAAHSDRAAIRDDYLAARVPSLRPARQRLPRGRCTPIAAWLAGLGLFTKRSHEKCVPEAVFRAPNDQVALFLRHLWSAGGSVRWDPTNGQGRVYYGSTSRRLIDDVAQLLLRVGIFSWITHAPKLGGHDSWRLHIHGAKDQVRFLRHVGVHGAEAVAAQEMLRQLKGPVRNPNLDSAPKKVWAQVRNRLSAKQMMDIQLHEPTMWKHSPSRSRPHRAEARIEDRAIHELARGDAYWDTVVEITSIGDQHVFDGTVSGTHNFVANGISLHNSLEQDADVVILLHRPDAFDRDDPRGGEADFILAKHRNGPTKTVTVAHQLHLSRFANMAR

Vero = Vero cell cytotoxicity, cytotoxicity control for flavivirus capping enzyme inhibitors (AID 588742); type: functional; details: Chlorocebus sabaeus
[8] = biological target: Glucose-6-phosphate 1-dehydrogenase (Homo sapiens, UniProt P11413); experiment: human G6PD enzyme inhibitors, dose response, selectivity assay for P. falciparum G6PD inhibitor project, biochemical, fluorescence (AID 504792); type: functional
[9] = CAL PDZ domain peptide-binding inhibitors, dose response, biochemical, fluorescence polarization, untagged CAL PDZ, dry powder (AID 602255); type: functional
[10] = biological target: Cystic fibrosis transmembrane conductance regulator/Golgi-associated PDZ and coiled-coil motif-containing protein (Homo sapiens, UniProt P13569+Q9HD26); experiment: CAL PDZ peptide-binding inhibitors, dose response, biochemical, fluorescence polarization, Cerulean-tagged CAL PDZ, cherry-picks (AID 504773)
[11] = Luminescence Cell-Based Dose Response HTS to Identify Inhibitors of 5'UTR Stem-Loop Driven Prion Protein mRNA Translation in H4 Neuroglioblastoma Cells. [Related pubchem assays: 1827 (Project Summary), 1813 (Primary HTS)]; type: functional
[12] = biological target: T2, Zinc finger protein mex-5 (Caenorhabditis elegans, UniProt Q9XUB2); experiment: MEX-5/TCR-2 RNA interaction inhibitors, dose response, biochemical, C. elegans, fluorescence polarization (AID 1960)
T2 sequence (Q9XUB2 whole entry): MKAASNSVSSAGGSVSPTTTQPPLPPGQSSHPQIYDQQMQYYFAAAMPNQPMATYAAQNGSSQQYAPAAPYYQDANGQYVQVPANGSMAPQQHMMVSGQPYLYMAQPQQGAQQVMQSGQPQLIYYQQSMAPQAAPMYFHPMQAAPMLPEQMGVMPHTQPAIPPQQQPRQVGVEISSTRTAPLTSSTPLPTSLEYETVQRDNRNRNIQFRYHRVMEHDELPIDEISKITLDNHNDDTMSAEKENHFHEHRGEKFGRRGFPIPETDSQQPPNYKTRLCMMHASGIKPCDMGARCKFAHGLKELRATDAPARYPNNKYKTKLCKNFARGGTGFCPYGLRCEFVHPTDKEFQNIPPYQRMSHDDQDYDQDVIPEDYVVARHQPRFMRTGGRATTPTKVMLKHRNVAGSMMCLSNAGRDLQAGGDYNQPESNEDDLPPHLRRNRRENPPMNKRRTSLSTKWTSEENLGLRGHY

[13] = biological target: Tyrosyl-DNA phosphodiesterase 2 (Homo sapiens, UniProt O95551); experiment: human TDP2 enzyme inhibitors, dose response, biochemical, epi absorbance, IC50 (AID 743297)
[14] = biological target: T3, RNA-binding protein pos-1 (Caenorhabditis elegans, UniProt G5EF15); experiment: inhibitors of POS-1/mex-3 RNA binding, dose response, biochemical, fluorescence polarization (AID 1964);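 further: purified POS-1 fused to maltose binding protein made in E. coli; potency of compounds blocking POS-1 binding to fluorescent RNA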
T3 sequence (G5EF15 whole entry): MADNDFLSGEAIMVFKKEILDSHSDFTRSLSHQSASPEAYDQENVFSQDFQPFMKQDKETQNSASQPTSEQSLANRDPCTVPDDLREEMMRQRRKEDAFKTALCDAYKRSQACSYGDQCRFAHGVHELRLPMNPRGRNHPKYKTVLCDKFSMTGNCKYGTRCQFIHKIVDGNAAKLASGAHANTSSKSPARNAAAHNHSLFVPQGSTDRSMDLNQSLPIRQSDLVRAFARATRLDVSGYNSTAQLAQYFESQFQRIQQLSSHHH

Genome polyprotein = Genome polyprotein (dengue virus type 2, UniProt P29990); experiment: Dengue-2 NS5 methyltransferase inhibitors, primary screen, biochemical, confirmation dose response (AID 588689); type: functional
Protein RecA = biological target: T4, Protein RecA (Mycobacterium tuberculosis, UniProt P9WHJ3); experiment: Fluorescence Cell-Free Homogeneous Dose Retest to Identify Inhibitors of RecA-Intein Splicing Activity. [Related pubchem assays (depositor defined):AID2097, AID2223, AID489010, AID492950]; type: functional
T4 sequence (P9WHJ3 whole entry): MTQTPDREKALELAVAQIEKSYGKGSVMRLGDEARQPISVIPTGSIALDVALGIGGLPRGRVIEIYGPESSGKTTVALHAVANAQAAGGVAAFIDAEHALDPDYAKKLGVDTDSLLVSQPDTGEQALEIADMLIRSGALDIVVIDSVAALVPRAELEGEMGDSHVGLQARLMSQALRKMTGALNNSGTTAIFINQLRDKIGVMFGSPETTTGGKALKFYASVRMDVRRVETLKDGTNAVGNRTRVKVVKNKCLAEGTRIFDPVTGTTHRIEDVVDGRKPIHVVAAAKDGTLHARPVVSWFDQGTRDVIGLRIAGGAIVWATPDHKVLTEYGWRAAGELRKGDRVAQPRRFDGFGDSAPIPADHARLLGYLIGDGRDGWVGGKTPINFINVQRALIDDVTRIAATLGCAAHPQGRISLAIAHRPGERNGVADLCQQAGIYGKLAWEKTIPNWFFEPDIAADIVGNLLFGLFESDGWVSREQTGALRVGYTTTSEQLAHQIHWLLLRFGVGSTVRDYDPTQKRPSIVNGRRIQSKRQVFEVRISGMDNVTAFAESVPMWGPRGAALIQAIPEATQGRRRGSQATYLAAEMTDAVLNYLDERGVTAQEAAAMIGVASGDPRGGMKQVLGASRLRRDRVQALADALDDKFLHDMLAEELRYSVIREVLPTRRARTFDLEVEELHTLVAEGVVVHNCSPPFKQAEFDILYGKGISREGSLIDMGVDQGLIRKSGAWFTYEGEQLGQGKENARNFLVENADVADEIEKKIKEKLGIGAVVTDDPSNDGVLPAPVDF

[15] = biological target: Benomyl/methotrexate resistance protein (Candida albicans, UniProt P28873); experiment: CaMdr1 efflux pump inhibitor potency, dose response, singleplex, Cherry Pick1 hits (AID 588608); type: functional
[16] = C. albicans growth with fluconazole, confirmation, fluorescence, retest (AID 2467); type: functional, cell-based
[17] = biological target: T5, Short transient receptor potential channel 4 (Mus musculus, UniProt Q9QUQ5); experiment: mouse TRPC4 channel inhibitors, dose response, cell-based, HEK293 TRPC4/mu-opioid, Fluo-4 calcium (AID 434942); type: functional;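 further: potency of inhibitors blocking the TRPC4 calcium response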
T5 sequence (Q9QUQ5 whole entry): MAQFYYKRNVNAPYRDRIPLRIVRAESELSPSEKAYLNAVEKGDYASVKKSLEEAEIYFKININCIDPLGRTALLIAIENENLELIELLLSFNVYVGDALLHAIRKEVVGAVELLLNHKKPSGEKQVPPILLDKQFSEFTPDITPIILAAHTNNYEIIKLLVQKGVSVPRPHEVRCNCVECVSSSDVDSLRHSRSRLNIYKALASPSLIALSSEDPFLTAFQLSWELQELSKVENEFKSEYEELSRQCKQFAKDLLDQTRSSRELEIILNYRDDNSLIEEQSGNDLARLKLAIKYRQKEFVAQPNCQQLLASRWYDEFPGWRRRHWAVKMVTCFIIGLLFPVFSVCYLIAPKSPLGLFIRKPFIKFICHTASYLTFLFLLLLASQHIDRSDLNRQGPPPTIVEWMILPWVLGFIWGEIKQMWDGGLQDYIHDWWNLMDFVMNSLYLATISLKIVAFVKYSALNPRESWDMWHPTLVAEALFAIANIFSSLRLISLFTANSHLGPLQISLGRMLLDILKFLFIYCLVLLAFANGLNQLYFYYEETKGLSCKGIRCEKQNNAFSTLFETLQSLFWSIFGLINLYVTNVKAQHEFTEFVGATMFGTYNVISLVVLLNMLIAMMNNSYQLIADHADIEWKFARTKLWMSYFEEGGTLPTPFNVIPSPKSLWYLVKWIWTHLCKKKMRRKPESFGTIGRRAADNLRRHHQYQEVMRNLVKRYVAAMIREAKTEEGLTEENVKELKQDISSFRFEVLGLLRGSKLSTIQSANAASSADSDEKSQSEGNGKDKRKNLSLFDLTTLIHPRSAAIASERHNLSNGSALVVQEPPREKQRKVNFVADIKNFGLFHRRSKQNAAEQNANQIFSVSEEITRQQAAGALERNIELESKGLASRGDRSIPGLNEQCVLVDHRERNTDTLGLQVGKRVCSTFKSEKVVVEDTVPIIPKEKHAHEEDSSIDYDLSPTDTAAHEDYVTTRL

[18] = biological target: T6, Ubiquitin-conjugating enzyme E2 N (Homo sapiens, UniProt P61088); type: functional;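 further: Dose-response confirmation in a TR-FRET assay detecting UBC13-driven polyubiquitin chain formation, inhibition measured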
T6 sequence (P61088 whole entry): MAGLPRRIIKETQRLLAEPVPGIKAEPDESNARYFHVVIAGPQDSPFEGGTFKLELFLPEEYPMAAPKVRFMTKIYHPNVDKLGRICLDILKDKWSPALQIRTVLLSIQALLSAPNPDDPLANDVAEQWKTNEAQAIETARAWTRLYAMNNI

[19] = NIH-3T3 fibroblast cytotoxicity, dose response, cytotoxicity control, cell-based, fluorescence, Alamar Blue, secondary assay (AID 2327); type: functional;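 further: NIH-3T3 mouse fibroblasts cultured with fluconazole at 8 µg/mL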
[20] = inhibitors of intracellular T. cruzi replication, confirmation, NIH3T3 host cells, beta-gal luminescence (AID 2044); type: functional, cell-based;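 further: intracellular parasites grown in NIH/3T3 mouse fibroblasts as host cells; luminescent beta-galactosidase reporter signal from transgenic T. cruzi replicating inside host cells; inhibitors lower the luminescence signal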
[21] = cytotoxicity toward NIH3T3 fibroblasts, dose response, counter-screen, cell-based, ATP luminescence, mouse fibroblasts (AID 2010); type: functional;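 further: cells exposed to compound for about 90 hours before reading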
[22] = biological target: Potassium voltage-gated channel subfamily KQT member 2 (Rattus norvegicus, UniProt O88943); experiment: KCNQ2 potassium channel inhibitors, dose response, cell-based, automated electrophysiology, set II, rat KCNQ2 (AID 588637); type: functional
Potassium voltage-gated channel subfamily KQT member 2, sequence (O88943 whole entry): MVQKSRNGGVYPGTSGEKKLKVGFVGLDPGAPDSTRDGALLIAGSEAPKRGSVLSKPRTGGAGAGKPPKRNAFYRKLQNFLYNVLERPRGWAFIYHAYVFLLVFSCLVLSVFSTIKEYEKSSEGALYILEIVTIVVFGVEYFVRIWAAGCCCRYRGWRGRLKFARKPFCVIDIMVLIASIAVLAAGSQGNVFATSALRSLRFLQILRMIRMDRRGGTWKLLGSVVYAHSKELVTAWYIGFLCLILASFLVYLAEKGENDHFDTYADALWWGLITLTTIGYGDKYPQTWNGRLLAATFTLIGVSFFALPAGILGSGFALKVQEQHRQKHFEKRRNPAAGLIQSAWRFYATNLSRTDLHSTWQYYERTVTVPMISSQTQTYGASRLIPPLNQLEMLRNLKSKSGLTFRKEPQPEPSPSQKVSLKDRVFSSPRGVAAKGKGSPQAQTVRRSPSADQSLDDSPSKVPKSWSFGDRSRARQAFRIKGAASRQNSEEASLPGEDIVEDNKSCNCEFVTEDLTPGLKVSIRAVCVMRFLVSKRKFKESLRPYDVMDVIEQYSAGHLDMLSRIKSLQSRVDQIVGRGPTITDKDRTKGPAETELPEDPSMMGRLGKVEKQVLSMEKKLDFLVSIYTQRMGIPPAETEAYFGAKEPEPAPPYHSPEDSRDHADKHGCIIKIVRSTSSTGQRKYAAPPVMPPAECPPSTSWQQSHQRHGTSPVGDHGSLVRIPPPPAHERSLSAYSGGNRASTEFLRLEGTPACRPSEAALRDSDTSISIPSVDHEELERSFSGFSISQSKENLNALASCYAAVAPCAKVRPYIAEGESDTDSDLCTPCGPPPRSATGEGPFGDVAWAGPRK

Genome polyprotein, sequence (P29990 2492-3391 limits assumed): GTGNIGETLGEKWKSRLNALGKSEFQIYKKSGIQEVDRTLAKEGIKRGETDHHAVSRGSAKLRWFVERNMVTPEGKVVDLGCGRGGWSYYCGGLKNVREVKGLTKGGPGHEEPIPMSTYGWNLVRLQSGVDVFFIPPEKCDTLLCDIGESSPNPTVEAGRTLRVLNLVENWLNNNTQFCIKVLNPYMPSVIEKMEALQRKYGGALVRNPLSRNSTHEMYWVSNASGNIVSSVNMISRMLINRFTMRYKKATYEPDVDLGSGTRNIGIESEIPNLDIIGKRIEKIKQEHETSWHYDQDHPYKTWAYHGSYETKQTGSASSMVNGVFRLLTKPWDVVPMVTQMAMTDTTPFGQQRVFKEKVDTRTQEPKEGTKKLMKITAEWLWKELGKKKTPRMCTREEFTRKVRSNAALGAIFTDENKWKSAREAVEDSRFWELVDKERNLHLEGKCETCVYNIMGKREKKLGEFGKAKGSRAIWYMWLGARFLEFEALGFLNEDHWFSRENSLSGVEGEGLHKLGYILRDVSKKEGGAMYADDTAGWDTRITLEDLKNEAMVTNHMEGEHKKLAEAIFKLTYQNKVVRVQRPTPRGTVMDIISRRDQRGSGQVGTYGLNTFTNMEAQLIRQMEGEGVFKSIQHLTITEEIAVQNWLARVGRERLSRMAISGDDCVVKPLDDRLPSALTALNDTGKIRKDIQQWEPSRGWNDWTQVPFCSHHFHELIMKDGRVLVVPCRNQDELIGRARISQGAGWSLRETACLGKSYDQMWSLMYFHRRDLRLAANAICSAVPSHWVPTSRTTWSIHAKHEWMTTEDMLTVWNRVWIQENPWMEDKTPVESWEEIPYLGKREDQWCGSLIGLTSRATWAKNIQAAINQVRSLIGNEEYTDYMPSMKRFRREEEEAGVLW
Glucose-6-phosphate 1-dehydrogenase, sequence (P11413 whole entry, the tested form may be a part): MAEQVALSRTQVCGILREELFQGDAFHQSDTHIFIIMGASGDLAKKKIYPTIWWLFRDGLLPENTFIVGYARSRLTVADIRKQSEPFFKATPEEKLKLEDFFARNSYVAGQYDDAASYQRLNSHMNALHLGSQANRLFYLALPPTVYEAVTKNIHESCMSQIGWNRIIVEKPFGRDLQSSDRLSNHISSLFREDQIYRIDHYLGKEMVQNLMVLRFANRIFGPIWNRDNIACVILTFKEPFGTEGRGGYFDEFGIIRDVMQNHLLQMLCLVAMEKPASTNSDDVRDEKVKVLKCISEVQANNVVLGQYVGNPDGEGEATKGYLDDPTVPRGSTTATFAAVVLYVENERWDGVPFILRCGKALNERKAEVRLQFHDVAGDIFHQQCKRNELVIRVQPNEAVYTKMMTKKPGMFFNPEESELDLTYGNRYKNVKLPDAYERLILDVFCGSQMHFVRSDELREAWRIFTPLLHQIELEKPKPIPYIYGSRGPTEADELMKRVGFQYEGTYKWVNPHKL
Dual specificity protein phosphatase 3, sequence (P51452 whole entry): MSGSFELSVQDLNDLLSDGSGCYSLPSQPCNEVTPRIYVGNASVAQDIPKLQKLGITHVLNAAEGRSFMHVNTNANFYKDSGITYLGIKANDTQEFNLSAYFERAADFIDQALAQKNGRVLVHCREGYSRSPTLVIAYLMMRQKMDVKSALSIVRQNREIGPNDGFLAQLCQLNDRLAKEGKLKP
Cystic fibrosis transmembrane conductance regulator/Golgi-associated PDZ and coiled-coil motif-containing protein, sequence (P13569 whole entry, other chains not shown): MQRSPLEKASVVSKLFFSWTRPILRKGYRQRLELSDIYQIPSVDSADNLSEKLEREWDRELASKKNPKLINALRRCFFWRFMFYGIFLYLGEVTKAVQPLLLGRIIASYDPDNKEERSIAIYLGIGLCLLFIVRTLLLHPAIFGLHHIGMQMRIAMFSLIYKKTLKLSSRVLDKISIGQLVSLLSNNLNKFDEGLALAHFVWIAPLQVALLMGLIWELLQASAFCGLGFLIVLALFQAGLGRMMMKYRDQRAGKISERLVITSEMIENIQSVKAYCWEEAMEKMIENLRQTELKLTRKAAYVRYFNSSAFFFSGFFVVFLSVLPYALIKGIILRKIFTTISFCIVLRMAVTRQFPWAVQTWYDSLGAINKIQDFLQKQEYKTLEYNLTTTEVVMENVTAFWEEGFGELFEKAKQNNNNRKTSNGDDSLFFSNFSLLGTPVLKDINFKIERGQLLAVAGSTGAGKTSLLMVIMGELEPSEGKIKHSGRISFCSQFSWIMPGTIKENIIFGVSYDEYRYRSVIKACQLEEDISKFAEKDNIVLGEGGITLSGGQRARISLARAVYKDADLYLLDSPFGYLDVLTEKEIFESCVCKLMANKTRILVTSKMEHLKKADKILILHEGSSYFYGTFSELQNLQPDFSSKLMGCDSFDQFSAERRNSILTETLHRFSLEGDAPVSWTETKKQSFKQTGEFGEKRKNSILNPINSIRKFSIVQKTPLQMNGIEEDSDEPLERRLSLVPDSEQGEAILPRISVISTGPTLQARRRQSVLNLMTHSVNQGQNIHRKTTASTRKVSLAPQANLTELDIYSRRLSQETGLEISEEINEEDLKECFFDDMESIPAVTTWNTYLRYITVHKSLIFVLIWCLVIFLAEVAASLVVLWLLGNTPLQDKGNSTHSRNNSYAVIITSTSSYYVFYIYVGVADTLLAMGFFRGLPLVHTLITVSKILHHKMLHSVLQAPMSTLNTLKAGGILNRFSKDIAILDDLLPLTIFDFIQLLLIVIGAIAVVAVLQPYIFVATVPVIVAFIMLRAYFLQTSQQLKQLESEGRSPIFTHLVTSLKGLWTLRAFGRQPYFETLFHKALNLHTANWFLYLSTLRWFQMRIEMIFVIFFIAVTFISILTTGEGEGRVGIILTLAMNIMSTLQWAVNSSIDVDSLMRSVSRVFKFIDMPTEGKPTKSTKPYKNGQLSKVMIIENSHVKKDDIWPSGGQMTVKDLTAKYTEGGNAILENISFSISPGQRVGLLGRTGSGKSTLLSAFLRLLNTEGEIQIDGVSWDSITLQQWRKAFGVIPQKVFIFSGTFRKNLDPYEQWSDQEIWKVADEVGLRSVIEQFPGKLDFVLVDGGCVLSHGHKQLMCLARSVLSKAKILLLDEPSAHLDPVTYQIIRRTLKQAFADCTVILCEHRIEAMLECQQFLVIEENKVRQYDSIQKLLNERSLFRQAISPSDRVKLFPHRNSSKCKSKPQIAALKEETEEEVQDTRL
Benomyl/methotrexate resistance protein, sequence (P28873 whole entry): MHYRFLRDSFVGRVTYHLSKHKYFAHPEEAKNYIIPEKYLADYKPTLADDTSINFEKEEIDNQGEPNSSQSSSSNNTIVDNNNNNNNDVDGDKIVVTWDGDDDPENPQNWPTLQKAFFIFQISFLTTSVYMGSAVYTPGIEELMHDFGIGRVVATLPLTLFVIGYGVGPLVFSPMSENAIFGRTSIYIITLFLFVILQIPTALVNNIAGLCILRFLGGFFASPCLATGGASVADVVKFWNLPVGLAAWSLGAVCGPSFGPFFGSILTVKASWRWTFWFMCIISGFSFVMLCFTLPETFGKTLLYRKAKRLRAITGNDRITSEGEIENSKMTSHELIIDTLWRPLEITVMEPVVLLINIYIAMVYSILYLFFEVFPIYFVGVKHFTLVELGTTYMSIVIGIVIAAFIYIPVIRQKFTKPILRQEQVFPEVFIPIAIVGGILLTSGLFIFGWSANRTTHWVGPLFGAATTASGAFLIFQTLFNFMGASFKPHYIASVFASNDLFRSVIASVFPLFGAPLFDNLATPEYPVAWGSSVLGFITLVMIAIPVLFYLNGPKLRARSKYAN
Tyrosine-protein phosphatase non-receptor type 5, sequence (P54829 whole entry): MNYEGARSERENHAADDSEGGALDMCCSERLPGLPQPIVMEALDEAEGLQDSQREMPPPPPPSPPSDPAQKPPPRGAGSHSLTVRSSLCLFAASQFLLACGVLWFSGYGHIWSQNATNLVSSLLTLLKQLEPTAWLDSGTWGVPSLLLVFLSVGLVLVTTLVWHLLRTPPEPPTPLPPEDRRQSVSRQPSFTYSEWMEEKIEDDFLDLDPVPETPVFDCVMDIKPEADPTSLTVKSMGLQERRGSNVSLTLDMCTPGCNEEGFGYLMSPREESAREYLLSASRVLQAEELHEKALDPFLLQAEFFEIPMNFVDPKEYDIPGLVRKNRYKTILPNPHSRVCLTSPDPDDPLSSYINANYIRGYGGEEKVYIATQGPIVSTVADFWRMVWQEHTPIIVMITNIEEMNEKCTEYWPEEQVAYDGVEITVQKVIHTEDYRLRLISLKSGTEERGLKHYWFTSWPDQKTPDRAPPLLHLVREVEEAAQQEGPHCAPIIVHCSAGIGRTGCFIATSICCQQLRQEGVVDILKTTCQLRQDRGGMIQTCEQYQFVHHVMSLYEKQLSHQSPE

Cc1nn(C)cc1/C=N/NC(=S)Nc1ccccc1
IC50 [1]: 26.5 µM (inactive) | IC50 [2]: 1.22 µM (active) | IC50 [3]: 3.15 µM (active)

Cn1cnc([N+](=O)[O-])c1S(=O)(=O)Oc1cccc2ccccc12
IC50 [4]: 3.4 µM (active)

CCOc1ccc(S(=O)(=O)Nc2cc(SCC(=O)O)c(O)c3ccccc23)cc1
EC50 [5]: > 120 µM (not active) | EC50 [6]: > 120 µM (not active) | AC50 [7]: 20.7 µM (active) | CC50 (Vero): 26.6 µM (active) | IC50 [8]: 28.4 µM (inactive) | AC50 [9]: 54.4 µM (active) | AC50 [10]: 36.2 µM (active) | EC50 [11]: > 120 µM (not active) | EC50 [12]: 11.9 µM (inconclusive) | IC50 [13]: 68.8 µM (inactive) | EC50 [14]: 78.8 µM (active) | IC50 (Genome polyprotein): 7.49 µM (active) | EC50 (Protein RecA): 4.23 µM (active)

O=C(C[n+]1cc(-c2ccc(Cl)c(Cl)c2)n2c1CCC2)N1c2ccccc2Sc2ccccc21
EC50 [15]: 14 nM (active) | EC50 [16]: 1.1 µM (active) | EC50 [17]: 1.88 µM (active) | IC50 [18]: > 20 µM (inactive) | EC50 [19]: > 150 µM (inactive) | EC50 [20]: 845 nM (active) | EC50 [21]: > 60 µM (not active)

COc1cc2cc(C(c3nnnn3Cc3ccc(F)cc3)N3CCCCCC3)c(O)nc2cc1OC (stereo not given)
IC50 [22]: 4.96 µM (active)

Reference: ChEMBL document CHEMBL1201862, “PubChem BioAssay data set” (2004)
